Test results taken from patent publication US6262106A, “Adamantanecarboximidamide derivatives and their use as NMDA antagonists” (priority 1998, dated 2001).
pIC50: −log10 of the molar value. Structures can show the parent of a compound that is named as a salt.

How the values were obtained:
[1] = known NMDA antagonists, administration; cited from earlier work
[2] = system: PCP site of the NMDA receptor (cortical NMDA receptors); assay: NMDA receptor binding, [3H]-MK-801 displacement at PCP site, rat cortical membranes; details: for Ratio: (IC50 Cortex / IC50 Cerebellum); for pIC50: rat cortex membranes, [3H]-MK-801 5 nM, 10 μM glutamate, 10 μM glycine, 120 min, room temperature
Excerpt: (§1) The NMDA receptor contains several distinct binding domains that can regulate opening of the cationic channel. The phencyclidine (PCP) site of the NMDA receptor can be radiolabelled with [^3 H]-(+)-5-methyl-10,11-dihydro-5H-dibenzo[a,d]cyclohepten-5,10-imine hydrogen maleate, [^3 H-MK-801]. The following describes the procedure for determining the affinity of compounds for the PCP site in rat cortical or cerebellar membranes.
(§2) Frozen rat cortex or cerebellum, homogenized in 10 volumes of ice-cold 0.32-M. sucrose is centrifuged at 1,000 g for 12 min and the supernatant stored on ice whilst the pellet is resuspended, rehomogenized and recentrifuged twice more. The three final supernatants are pooled and centrifuged at 30,000 g for 40 min at 4° C. to yield P2 pellets. These are resuspended in ice-cold distilled water, and centrifuged at 30,000 g for 50 min at 4° C. Following three further washes in distilled water, the P2 pellets are stored at -20° C. for at least 18 h. On the day of the assay, membrane pellets are thawed at room temperature, resuspended in ice-cold distilled water and centrifuged at 30,000 g for 20 min. The pellets are resuspended in 50-mM tris-HCl (pH:7.4) and recentrifuged twice more before being resuspended in tris-HCl for immediate use in the assay. Binding assays are performed at equilibrium in a total volume of 200 μL, containing [^3 H]-MK-801 (5-nM final conc.), 10-μM glutamate, 10-μM glycine, 160 μL of membrane preparation and additional drugs where appropriate. Non-specific binding is determined using MK-801 (10-μM). The assay is incubated for 120 min at room temperature. The incubation is terminated by rapid filtration through Whatman GF/B filters (pre-soaked in 0.1% PEI solution). The assay tubes and filters are washed five times with 1 mL of ice-cold assay buffer. The filters are placed in poly-Q mini vials with approximately 5 mL of scintillation fluid. The vials are then shaken and left for at least 8 h before being counted on a liquid scintillation counter. To determine the free ligand concentration 3 aliquots (20 μL) of the [^3 H]-MK-801 working solution are also counted. Concentration response data for drugs is analysed using a 4 parameter equation fitted by non-linear regression. This yields the half maximally effective drug concentration (IC50) and Hill coefficient.

[3] = biological target: PCP site of the NMDA receptor (cerebellar NMDA receptors); assay: NMDA receptor binding, [3H]-MK-801 displacement at PCP site, rat cerebellar membranes; details: rat cerebellum membranes; [3H]-MK-801 5 nM; 10 μM glutamate, 10 μM glycine; 120 min, room temperature
Excerpt: as §1, §2

Compound	side effects [1]	Ratio [2]	pIC50 [2]	pIC50 [3]
CCc1cccc(N(C)C(N)=Nc2cccc3ccccc23)c1 [Cerestat]	perceptual and cognitive disturbances of a kind that resemble naturally-occurring psychotic states	–	–	–
COc1ccc(C2(C(=N)N)C3CC4CC(C3)CC2C4)cc1 (stereo not shown) [Example 8, 2-(4-Methoxyphenyl)-2-adamantanecarboximidamide hydrochloride]	–	2.0	4.35	4.66
Cc1ccccc1C1(C(=N)N)C2CC3CC(C2)CC1C3.Cl (stereo not shown) [Example 5, 2-(2-Methylphenyl)-2-adamantanecarboximidamide hydrochloride]	–	1.7	4.28	4.51
C[C@]12N[C@H](Cc3ccccc31)c1ccccc12 [Dizocilpine]	perceptual and cognitive disturbances of a kind that resemble naturally-occurring psychotic states	–	–	–
N=C(N)C1(c2ccc(F)cc2)C2CC3CC(C2)CC1C3 (stereo not shown) [Example 6, 2-(4-Fluorophenyl)-2-adamantanecarboximidamide hydrochloride]	–	1.8	4.36	4.60
CNC1(c2ccccc2Cl)CCCCC1=O (stereo not shown) [Ketamine]	perceptual and cognitive disturbances of a kind that resemble naturally-occurring psychotic states	–	–	–
Cc1ccc(C2(C(=N)N)C3CC4CC(C3)CC2C4)cc1 (stereo not shown) [Example 4, 2-(4-Methylphenyl)-2-adamantanecarboximidamide hydrochloride]	–	1.9	3.98	4.25
N=C(N)C1(c2ccc(Cl)cc2)C2CC3CC(C2)CC1C3 (stereo not shown) [Example 7, 2-(4-Chlorophenyl)-2-adamantanecarboximidamide hydrochloride]	–	1.7	4.23	4.47
c1ccc(C2(N3CCCCC3)CCCCC2)cc1 [PCP, phencyclidine]	perceptual and cognitive disturbances of a kind that resemble naturally-occurring psychotic states	–	–	–
